Patent publication US20250171495A1, “MUTLI-TARGETED SERINE PROTEASE INHIBITORS FOR TREATMENT OF CANCER AND VIRAL INFECTION” (Washington University, priority 2023, published 2025)
Where “and” joins values, the source holds several entries; their conditions need not be identical. Identical values can stand only once. Like-named read-outs stand apart in the source and are kept apart here. Blank lines part the entries; values can stand above or below the compound they belong to.

Experiments:
Assay type in all cases: biochemical
TMPRSS2 [1] = molecular target: T1, TMPRSS2 (Homo sapiens, UniProt O15393); experiment: Fluorogenic kinetic enzyme inhibitor assay, TMPRSS2; design: purchased Cusabio Technology CSB-YP023924HU
Target sequence in this assay (O15393 106-492 limits assumed): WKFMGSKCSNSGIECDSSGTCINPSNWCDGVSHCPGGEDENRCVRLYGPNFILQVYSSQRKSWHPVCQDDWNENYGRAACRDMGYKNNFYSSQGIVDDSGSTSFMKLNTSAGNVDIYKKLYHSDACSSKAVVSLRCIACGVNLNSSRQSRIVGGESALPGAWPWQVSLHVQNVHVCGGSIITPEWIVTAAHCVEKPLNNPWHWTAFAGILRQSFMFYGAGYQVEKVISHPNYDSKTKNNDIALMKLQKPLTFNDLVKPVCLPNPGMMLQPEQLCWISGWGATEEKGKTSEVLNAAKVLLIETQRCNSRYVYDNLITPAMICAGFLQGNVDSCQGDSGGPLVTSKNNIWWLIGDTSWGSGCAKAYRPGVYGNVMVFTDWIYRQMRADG

TMPRSS2 [2] = molecular target: T1, TMPRSS2; experiment: PS-SCL / HyCoSuL substrate specificity screening, TMPRSS2; details: for P2 Position Substrate Activity for TMPRSS2 (percent substrate cleavage/proteolysis): residue fixed at P2 position of substrate library
Target sequence in this assay (O15393 whole entry): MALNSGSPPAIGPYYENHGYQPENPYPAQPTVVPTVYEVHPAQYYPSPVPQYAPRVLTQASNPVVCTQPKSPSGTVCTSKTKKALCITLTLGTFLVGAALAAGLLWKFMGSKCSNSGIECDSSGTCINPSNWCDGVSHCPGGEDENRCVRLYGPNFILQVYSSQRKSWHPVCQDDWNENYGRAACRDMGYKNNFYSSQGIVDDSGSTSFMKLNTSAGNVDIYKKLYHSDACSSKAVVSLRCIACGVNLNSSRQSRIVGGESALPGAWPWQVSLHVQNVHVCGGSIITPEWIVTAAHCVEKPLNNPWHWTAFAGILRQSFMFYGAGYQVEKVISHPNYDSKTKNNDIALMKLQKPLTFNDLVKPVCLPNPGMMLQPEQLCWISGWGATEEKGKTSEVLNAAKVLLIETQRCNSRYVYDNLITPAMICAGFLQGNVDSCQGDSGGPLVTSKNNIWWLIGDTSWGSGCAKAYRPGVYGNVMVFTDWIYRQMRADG

matriptase = molecular target: T2, matriptase (Homo sapiens, UniProt Q9Y5Y6); experiment: HyCoSuL P4-P2 substrate specificity screening, matriptase; details: for P2 Position Substrate Activity for matriptase (percent substrate cleavage/proteolysis): residue fixed at P2 position; for P3 Position Various Amino Acids Substrate Activity, matriptase (percent substrate cleavage/proteolysis): residue fixed at P3 position of substrate library; for P4 Position Various Amino Acids Substrate Activity, matriptase (percent substrate proteolysis/cleavage): residue fixed at P4 position of substrate library
T2 sequence (Q9Y5Y6 1-855): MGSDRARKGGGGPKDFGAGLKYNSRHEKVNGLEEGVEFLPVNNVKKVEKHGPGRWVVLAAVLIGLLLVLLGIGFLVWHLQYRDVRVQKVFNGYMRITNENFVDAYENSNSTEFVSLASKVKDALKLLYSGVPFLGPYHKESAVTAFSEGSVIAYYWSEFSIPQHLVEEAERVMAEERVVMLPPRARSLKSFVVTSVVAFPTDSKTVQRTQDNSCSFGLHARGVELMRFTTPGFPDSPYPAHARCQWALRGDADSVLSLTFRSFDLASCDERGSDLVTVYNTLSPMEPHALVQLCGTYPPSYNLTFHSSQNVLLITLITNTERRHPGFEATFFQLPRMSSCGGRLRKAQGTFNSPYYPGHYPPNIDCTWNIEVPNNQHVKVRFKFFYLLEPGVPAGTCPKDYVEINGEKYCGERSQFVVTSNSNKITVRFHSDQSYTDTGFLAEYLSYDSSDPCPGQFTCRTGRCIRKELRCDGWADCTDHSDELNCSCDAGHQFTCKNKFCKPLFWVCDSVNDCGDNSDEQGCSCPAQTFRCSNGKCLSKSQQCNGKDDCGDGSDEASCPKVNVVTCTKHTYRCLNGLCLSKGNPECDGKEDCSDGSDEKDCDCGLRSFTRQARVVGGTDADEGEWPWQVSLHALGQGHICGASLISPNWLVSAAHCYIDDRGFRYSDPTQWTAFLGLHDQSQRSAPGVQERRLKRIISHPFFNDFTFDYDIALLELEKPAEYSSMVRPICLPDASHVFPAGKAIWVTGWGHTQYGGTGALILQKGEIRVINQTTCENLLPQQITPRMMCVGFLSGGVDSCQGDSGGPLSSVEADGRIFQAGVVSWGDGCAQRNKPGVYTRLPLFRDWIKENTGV

hepsin = molecular target: T3, hepsin (Homo sapiens, UniProt P05981); experiment: HyCoSuL P4-P2 substrate specificity screening, hepsin; details: for P2 Position Substrate Activity for hepsin (percent substrate cleavage/proteolysis): residue fixed at P2 position; for P3 Position Various Amino Acids Substrate Activity, hepsin (percent substrate cleavage/proteolysis): residue fixed at P3 position of substrate library; for P4 Position Various Amino Acids Substrate Activity, hepsin (percent substrate proteolysis/cleavage): residue fixed at P4 position of substrate library
T3 construct: purchased R&D Systems 4776-SE-010

HGFA = molecular target: T4, HGFA (Homo sapiens, UniProt Q04756); experiment: HyCoSuL P4-P2 substrate specificity screening, HGFA; details: for P2 Position Substrate Activity for HGFA (percent substrate cleavage/proteolysis): residue fixed at P2 position; for P3 Position Various Amino Acids Substrate Activity, HGFA (percent substrate cleavage/proteolysis): residue fixed at P3 position of substrate library; for P4 Position Various Amino Acids Substrate Activity, HGFA (percent substrate proteolysis/cleavage): residue fixed at P4 position of substrate library
T4 sequence (Q04756 373-655): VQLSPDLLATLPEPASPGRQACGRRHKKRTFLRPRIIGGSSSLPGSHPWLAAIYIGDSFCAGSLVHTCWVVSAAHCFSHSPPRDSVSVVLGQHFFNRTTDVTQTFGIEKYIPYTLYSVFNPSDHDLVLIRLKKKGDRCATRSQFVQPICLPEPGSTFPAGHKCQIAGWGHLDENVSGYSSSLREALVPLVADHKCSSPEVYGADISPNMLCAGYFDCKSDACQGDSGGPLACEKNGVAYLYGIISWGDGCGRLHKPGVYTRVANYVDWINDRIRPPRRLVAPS

[3] = best recognized amino acid set to 100%
[4] = residue fixed at P3 position of substrate library
[5] = residue fixed at P4 position of substrate library
[6] = P1-Arg HyCoSuL, 100 μM, best recognized amino acid set to 100%
[7] = residue fixed at P3 position, P1-Arg HyCoSuL, 100 μM, best recognized amino acid set to 100%
[8] = residue fixed at P4 position, P1-Arg HyCoSuL, 100 μM, best recognized amino acid set to 100%

T3 sequence (P05981 163-417 limits assumed): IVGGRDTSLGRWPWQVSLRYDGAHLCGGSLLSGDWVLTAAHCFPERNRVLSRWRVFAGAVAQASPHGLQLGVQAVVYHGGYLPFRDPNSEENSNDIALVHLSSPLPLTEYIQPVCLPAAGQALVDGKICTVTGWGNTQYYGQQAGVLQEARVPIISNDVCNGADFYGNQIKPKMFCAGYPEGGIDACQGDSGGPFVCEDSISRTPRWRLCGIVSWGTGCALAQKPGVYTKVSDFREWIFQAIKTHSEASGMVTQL
T3 sequence (P05981 1-162 partner limits assumed): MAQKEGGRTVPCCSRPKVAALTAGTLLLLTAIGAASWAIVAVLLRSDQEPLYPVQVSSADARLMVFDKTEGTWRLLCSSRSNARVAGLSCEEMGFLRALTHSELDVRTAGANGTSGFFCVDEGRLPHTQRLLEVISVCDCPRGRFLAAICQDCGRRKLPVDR

Compound: C=CCOC(=O)CC[C@H](NC(=O)[C@@H]1Cc2ccccc2N1C(C)=O)C(=O)N[C@@H](Cc1ccc(F)cc1)C(=O)N[C@H](CCCNC(=N)N)C(=O)c1nc2ccccc2s1 [MF1067A, allyl (S)-4-[(S)-1-acetyl-2-indolinylcarbonylamino]-4-[N-(S)-2-(p-fluorophenyl)-1-[N-(R)-1-[(1,3-benzothiazol-2-yl)carbonyl]-4-guanidinobutylcarbamoyl]ethylcarbamoyl]butyrate]
IC50 (TMPRSS2 [1]): 0.431 nM

Compound: C=CCOC(=O)CC[C@H](NC(=O)[C@@H]1Cc2ccccc2N1C(C)=O)C(=O)N[C@@H](Cc1ccc(F)cc1)C(=O)N[C@@H](CCCNC(=N)N)C(=O)c1nc2ccccc2s1 [MF1067B, allyl (S)-4-[(S)-1-acetyl-2-indolinylcarbonylamino]-4-[N-(S)-2-(p-fluorophenyl)-1-[N-(S)-1-[(1,3-benzothiazol-2-yl)carbonyl]-4-guanidinobutylcarbamoyl]ethylcarbamoyl]butyrate]
IC50 (TMPRSS2 [1]): 0.2 nM

Compound: N=C(N)NCCC[C@H](NC(=O)[C@H](CCc1ccc(O)cc1)NC(=O)OCC1c2ccccc2-c2ccccc21)C(=O)c1nc2ccccc2s1 [MF1163, (S)-3-(p-hydroxyphenyl)-1-[N-(S)-1-[(1,3-benzothiazol-2-yl)carbonyl]-4-guanidinobutylcarbamoyl] propyl (9H-fluoren-9-yl)methanecarbamate]
IC50 (TMPRSS2 [1]; read-out: TMPRSS2 IC50): 0.167 nM

Compound: N=C(N)NCCC[C@H](NC(=O)[C@H](Cc1ccccc1)NC(=O)[C@H](N)Cc1c[nH]c2ccccc12)C(=O)c1nc2ccccc2s1 [PK-1-18A1, N-[(S)-1-[(1,3-benzothiazol-2-yl)carbonyl]-4-guanidinobutyl](S)-2-[(R)-2-amino-3-(3-indolyl)propionylamino]-3-phenylpropionamide]
IC50 (TMPRSS2 [1]; read-out: TMPRSS2 IC50): 25.8 nM

Compound: N=C(N)NCCC[C@H](NC(=O)[C@H](Cc1ccccc1)NC(=O)[C@H](N)Cc1c[nH]c2ccccc12)C(=O)c1nc2ccc(C(=O)O)cc2s1 [PK-1-45A1, 2-[(S)-2-[(S)-2-[(R)-2-amino-3-(3-indolyl)propionylamino]-3-phenylpropionylamino]-5-guanidinovaleryl]-1,3-benzothiazole-6-carboxylic acid]
IC50 (TMPRSS2 [1]; read-out: TMPRSS2 IC50): 1.94 nM

Compound: L-Trp
P2 Position Substrate Activity for TMPRSS2 (percent substrate cleavage/proteolysis) (TMPRSS2 [2]; [3]): 33.05% | P3 Position Various Amino Acids Substrate Activity, TMPRSS2 (percent substrate cleavage/proteolysis) (TMPRSS2 [2]; [4]): 22.96% | P4 Position Various Amino Acids Substrate Activity, TMPRSS2 (percent substrate proteolysis/cleavage) (TMPRSS2 [2]; [5]): 24.62% | P2 Position Substrate Activity for matriptase (percent substrate cleavage/proteolysis) (matriptase; [6]): 32% | P3 Position Various Amino Acids Substrate Activity, matriptase (percent substrate cleavage/proteolysis) (matriptase): 11% | P4 Position Various Amino Acids Substrate Activity, matriptase (percent substrate proteolysis/cleavage) (matriptase): 9% | P2 Position Substrate Activity for hepsin (percent substrate cleavage/proteolysis) (hepsin; [6]): 6.00% | P3 Position Various Amino Acids Substrate Activity, hepsin (percent substrate cleavage/proteolysis) (hepsin): 0.00% | P4 Position Various Amino Acids Substrate Activity, hepsin (percent substrate proteolysis/cleavage) (hepsin): 6.82% | P2 Position Substrate Activity for HGFA (percent substrate cleavage/proteolysis) (HGFA; [6]): 4.04% | P3 Position Various Amino Acids Substrate Activity, HGFA (percent substrate cleavage/proteolysis) (HGFA): 17.50% | P4 Position Various Amino Acids Substrate Activity, HGFA (percent substrate proteolysis/cleavage) (HGFA): 8.78%

Compound: L-Tyr
P2 Position Substrate Activity for TMPRSS2 (percent substrate cleavage/proteolysis) (TMPRSS2 [2]; [3]): 31.93% | P3 Position Various Amino Acids Substrate Activity, TMPRSS2 (percent substrate cleavage/proteolysis) (TMPRSS2 [2]; [4]): 16.18% | P4 Position Various Amino Acids Substrate Activity, TMPRSS2 (percent substrate proteolysis/cleavage) (TMPRSS2 [2]; [5]): 31.87% | P2 Position Substrate Activity for matriptase (percent substrate cleavage/proteolysis) (matriptase; [6]): 12% | P3 Position Various Amino Acids Substrate Activity, matriptase (percent substrate cleavage/proteolysis) (matriptase): 17% | P4 Position Various Amino Acids Substrate Activity, matriptase (percent substrate proteolysis/cleavage) (matriptase): 14% | P2 Position Substrate Activity for hepsin (percent substrate cleavage/proteolysis) (hepsin; [6]): 22.79% | P3 Position Various Amino Acids Substrate Activity, hepsin (percent substrate cleavage/proteolysis) (hepsin): 7.75% | P4 Position Various Amino Acids Substrate Activity, hepsin (percent substrate proteolysis/cleavage) (hepsin): 22.39% | P2 Position Substrate Activity for HGFA (percent substrate cleavage/proteolysis) (HGFA; [6]): 3.17% | P3 Position Various Amino Acids Substrate Activity, HGFA (percent substrate cleavage/proteolysis) (HGFA): 11.59% | P4 Position Various Amino Acids Substrate Activity, HGFA (percent substrate proteolysis/cleavage) (HGFA): 16.47%

Compound: L-hArg
P2 Position Substrate Activity for TMPRSS2 (percent substrate cleavage/proteolysis) (TMPRSS2 [2]; [3]): 13.07% | P3 Position Substrate Activity for TMPRSS2 (percent substrate cleavage/proteolysis) (TMPRSS2 [2]; residue fixed at P3 position of substrate library, best recognized amino acid set to 100%): 18.34% | P4 Position Substrate Activity for TMPRSS2 (percent substrate cleavage/proteolysis) (TMPRSS2 [2]; residue fixed at P4 position of substrate library, best recognized amino acid set to 100%): 44.91% | P2 Position Substrate Activity for matriptase (percent substrate cleavage/proteolysis) (matriptase; [6]): 16% | P3 Position Various Amino Acids Substrate Activity, matriptase (percent substrate cleavage/proteolysis) (matriptase): 44% | P3 Position Substrate Activity for matriptase (percent substrate cleavage/proteolysis) (matriptase; [7]): 44.42% | P4 Position Various Amino Acids Substrate Activity, matriptase (percent substrate proteolysis/cleavage) (matriptase): 86% | P4 Position Substrate Activity for matriptase (percent substrate cleavage/proteolysis) (matriptase; [8]): 76.43% and 86.17% | P2 Position Substrate Activity for hepsin (percent substrate cleavage/proteolysis) (hepsin; [6]): 57.96% | P3 Position Substrate Activity for hepsin (percent substrate cleavage/proteolysis) (hepsin; [7]): 47.00% | P4 Position Substrate Activity for hepsin (percent substrate cleavage/proteolysis) (hepsin; [8]): 56.24% | P2 Position Substrate Activity for HGFA (percent substrate cleavage/proteolysis) (HGFA; [6]): 5.83% | P3 Position Substrate Activity for HGFA (percent substrate cleavage/proteolysis) (HGFA; [7]): 100.00% | P4 Position Substrate Activity for HGFA (percent substrate cleavage/proteolysis) (HGFA; [8]): 22.07%

Now from value to compound:

IC50 (TMPRSS2 [1]; read-out: TMPRSS2 IC50): 458 nM
Compound: CC(C)CC[C@H](NC(=O)OCC1c2ccccc2-c2ccccc21)C(=O)N[C@@H](CCCNC(=N)N)C(=O)c1nc2ccccc2s1 [MF1164, (S)-4-methyl-1-[N-(S)-1-[(1,3-benzothiazol-2-yl)carbonyl]-4-guanidinobutylcarbamoyl] pentyl (9H-fluoren-9-yl)methanecarbamate]

IC50 (TMPRSS2 [1]; read-out: TMPRSS2 IC50): 6.46 nM
Compound: CC(=O)NCC(=O)N[C@@H](CCC(N)=O)C(=O)N[C@@H](Cc1ccccc1)C(=O)N[C@H](CCCNC(=N)N)C(=O)c1nc2ccccc2s1 [MM3122-1, N-[(S)-1-[N-(R)-1-[(1,3-benzothiazol-2-yl)carbonyl]-4-guanidinobutylcarbamoyl]-2-phenylethyl](S)-2-[(acetylaminomethyl)carbonylamino]glutaramide]

IC50 (TMPRSS2 [1]; read-out: TMPRSS2 IC50): 7.54 nM
Compound: CC(=O)N[C@@H](CCCCNC(=N)N)C(=O)N[C@@H](Cc1cncn1COCc1ccccc1)C(=O)N[C@@H](CCC(C)C)C(=O)N[C@H](CCCNC(=N)N)C(=O)c1nc2ccccc2s1 [MM4031-1, N-[(R)-1-[(1,3-benzothiazol-2-yl)carbonyl]-4-guanidinobutyl](S)-2-[(S)-2-[(S)-1-acetylamino-5-guanidinopentylcarbonylamino]-3-{1-[(benzyloxy)methyl]-5-imidazolyl}propionylamino]-5-methylhexanamide]

IC50 (TMPRSS2 [1]; read-out: TMPRSS2 IC50): 9.39 nM
Compound: CC(=O)N[C@@H](CCCCNC(=N)N)C(=O)N[C@@H](Cc1cncn1COCc1ccccc1)C(=O)N[C@@H](CCC(C)C)C(=O)N[C@@H](CCCNC(=N)N)C(=O)c1nc2ccccc2s1 [MM4031-2, N-[(S)-1-[(1,3-benzothiazol-2-yl)carbonyl]-4-guanidinobutyl](S)-2-[(S)-2-[(S)-1-acetylamino-5-guanidinopentylcarbonylamino]-3-{1-[(benzyloxy)methyl]-5-imidazolyl}propionylamino]-5-methylhexanamide]

IC50 (TMPRSS2 [1]; read-out: TMPRSS2 IC50): 0.385 nM
Compound: CCC(C)[C@H](NC(C)=O)C(=O)N[C@@H](CCC(=O)O)C(=O)N[C@@H](Cc1ccccc1)C(=O)N[C@H](CCCNC(=N)N)C(=O)c1nc2ccccc2s1 (stereo partly drawn) [MM4037-1, (S)-4-[(2S)-2-acetylamino-3-methylvalerylamino]-4-[N-(S)-1-[N-(R)-1-[(1,3-benzothiazol-2-yl)carbonyl]-4-guanidinobutylcarbamoyl]-2-phenylethylcarbamoyl]butyric acid]

IC50 (TMPRSS2 [1]; read-out: TMPRSS2 IC50): 1.91 nM
Compound: CC(=O)N[C@H](Cc1c[nH]c2ccccc12)C(=O)N[C@@H](CC(C)C)C(=O)N[C@@H](CCCNC(=N)N)C(=O)c1nc2ccc(C(=O)O)cc2s1 [PK-1-94, 2-[(S)-2-[(S)-2-[(R)-2-acetylamino-3-(3-indolyl)propionylamino]-4-methylvalerylamino]-5-guanidinovaleryl]-1,3-benzothiazole-6-carboxylic acid]
